Measured values published in US7927785B2, “Methods for in vitro expansion of hematopoietic stem cells” (The Board of Trustees of the University of Illinois, priority 2002, dated 2011).

How the values were obtained:
[1] = test system: CpG residue located at −256 position within the γ-globin promoter region; assay: COBRA (Combined Bisulfite Restriction Analysis) of DNA methylation; assay type: cell-based, human
Description: DNA was prepared from cultured CD34^+ cells (0.5-2.0×10^6 total cells) using the QIAamp DNA blood Minikit (Qiagen, Valencia, Calif.) according to manufacturer's instructions. The purified DNA was digested with 10-20 units Hind III at 37° C. for one hour followed by two extractions with a 50/50/1 mixture of phenol/chloroform/isoamyl:alcohol saturated with 0.5 M Tris, pH 7.5. The digested DNA was precipitated overnight at −20° C. in the presence of 2.5 volumes ethanol and 0.3 M sodium acetate, pH 7.0. DNA was harvested by centrifugation, washed 2× in 70% ethanol and dissolved in H2O.
DNA Denaturation was performed by incubation of 1-2 μg DNA in 10-20 μl 0.3 M NaOH at 37° C. for 20 minutes. Bisulfite modification was performed by the addition of 200 μl bisulfite solution (2.5 M sodium metabisulfite, 100 mM hydroquinone) prepared according to the method as described (Clark et al., Nucleic Acid Res. 22:2990-2997, 1994; Raizis et al., Anal. Biocem; 226:161-166, 1995; Xiong et al., Nucleic Acid Res., 2532-2534, 1997), followed by incubation for 4 hours at 50° C. […]
For COBRA (Combined Bisulfite Restriction Analysis), a 201 bp fragment of the γ-globin promoter region was amplified by two rounds of PCR using doubly nested primers. […] Digested products were analyzed by polyacrylamide gel electrophoresis (5% gel), visualized by staining with ethidium bromide, and quantified by densitometry.

NOD/SCID mice = assay: Marrow repopulation assay of human cell grafts in NOD/SCID mice; assay type: in vivo; details: cells after 9 days of culture with cytokines; 7 weeks
Description: A colony of immunodeficient nonobese diabetic/ltsz-scid/scid (NOD/SCID) mice were purchased from the Jackson Laboratories (Bar Harbor, Me.) and were maintained as previously described (Coneallt et al., Proc. Nat'l Acad. Sci. USA, 94:9836-41, 1997). All NOD/SCID mice were kept under sterile conditions in the microisolator cages and were provided with autoclaved food and acidified water.
Mice were given 300cGy of total body gamma irradiation and human grafts were injected via the tail vein. Cytokines including SCF, IL-3 and GM-CSF at 5 ug/mouse were injected intraperitoneally on alternate days following injection of human grafts during the first week of transplant. Sulfamethoxazole (40 mg/mL) and Trimethoprim (8 mg/mL)(SMX/TMZ; Elkins-Sinn, Cherry Hill, N.J.) were added in the drinking water for 3 days post injection and then subsequently for 3 days beginning the second week of transplant. Mice were sacrificed after 7 weeks. Femurs and tibias were flushed with Hank's balanced salt solution (HBSS) (Biowhittiker) with 2% FBS (Hyclone) and 0.02% sodium azide and cell counts performed. […] Marrow cells were analyzed by flow cytometry to detect human cell engraftment as previously described.^29 Briefly to quantitate the total number of human cells present an aliquot of cells was stained with anti-CD45-FITC(BD) and anti-CD71-FITC(BD). […]

Row | Structure (SMILES) | % Hypomethylation ([1]; 5 days of culture, 5azaD 10−6M, TSA 5 ng/ml, approximated) [%] | % Methylation (COBRA, −256 position of γ-globin promoter) ([1]; cultured 5 days with cytokines, densitometry) [%] | marrow repopulating activity: engraftment and multilineage differentiation (NOD/SCID mice)
1 | Nc1ncn([C@H]2C[C@H](O)[C@@H](CO)O2)c(=O)n1 [5azaD, 5-aza2′deoxycitidine] | 68 | 32 | retained the ability to engraft NOD/SCID mice
2 | CC(/C=C/C(=O)NO)=C\[C@@H](C)C(=O)c1ccc(N(C)C)cc1 [TSA, Trichostatin A] |  |  | no longer possessed such marrow repopulating activity
